According to a melting point compilation (Tetko et al.; mined from patent text by program, amines drawn as free bases though some values may be those of a salt):

SMILES	melting point [°C]
CC(C)(Cn1cnc2c(N)nc3c(c21)CCCC3)OCCS(C)(=O)=O	219 to 223
Cc1cc(Br)c2c(c1)C=C(C(=O)O)C(C(F)(F)F)O2 (stereo unspecified)	237 to 238
CCCN1CC(C)CC2c3cccc4[nH]c(SC)c(c34)CC21 (stereo unspecified)	216 to 219
CC(=NNc1ccc(C2=NNC(=O)CC2C)cc1)c1cnsn1 (stereo unspecified)	241 to 245
Cc1ccc(Sc2nc(F)c(C#N)cc2F)cc1	120 to 121
N#Cc1cn(C[C@@H]2CN(c3ccc(N4CCC5(CC4)OCCO5)c(F)c3)C(=O)O2)nn1	158 to 160
Nc1ccc(CP2(=O)OCCCCO2)cc1	128 to 129
COC(=O)C=Cc1ccc(C=O)cc1	82 to 84
Cn1cc(C(N)=O)c(=O)c2ccc(C(C)(C)C)cc21	268 to 270
CC1(C)CC(N(CCO)CC(O)COc2ccc(C(C)(C)c3ccc(OCC(O)CN(CCO)C4CC(C)(C)NC(C)(C)C4)cc3)cc2)CC(C)(C)N1 (stereo unspecified)	69 to 71
COCCOC(=O)C1=C(C)NC(C)=C(C(=O)OCCOC)C1c1ccccc1OC(F)F	94 to 95
Cn1ccc2c1CCn1ccnc1C2=C1CCN(CCNc2ncccn2)CC1	202
O=C(O)c1cc(Cl)cc2c1O[C@@H]1C=CCC[C@H]21 (relative stereo)	147 to 150
CC(C)COCCOc1ccc(OCC(O)CNCCNC(=O)N2CCOCC2)cc1 (stereo unspecified)	95 to 96
CCCCCCCCCCCCCCCCCCOc1cc(O)cc(C(=O)OC)c1	93 to 94
CC(=S)NC[C@H]1CN(c2ccc(N3CCC(C#N)(C(C#N)C#N)CC3)c(F)c2)C(=O)O1	178 to 180
Cc1cc(C)c(C2C(=O)N(N(C)C)C3(CCN(N(C)C)CC3)C2=O)c(C)c1 (stereo unspecified)	80 to 85
COc1cc2ncnc(NC3=CC(=O)C(N4CCOCC4)=CC3=O)c2cc1OC	249 to 250
COC(=O)c1ccc(N)c(C(=O)OC)c1	127 to 130
CCOC(=O)c1ncc2[nH]c3ccc(C(C)OC)cc3c2c1C (stereo unspecified)	96 to 97
CCCCc1c(/C=C/C(=O)OC)ccc2cc(OC)ccc12	71 to 72
COc1ncnc(-c2cc([N+](=O)[O-])c(F)cc2F)c1Cl	84 to 88
Cn1c(C(F)(F)F)nn(-c2cc(F)c(C#N)cc2Cl)c1=O	105
NC(=NO)c1cc2cc(F)c(F)cc2o1	184
NC(=O)c1ccc(S(=O)(=O)NCCC2CCC(CC(=O)O)CC2)cc1 (stereo unspecified)	172 to 174
CS(=O)(=O)N(c1ccc(Cl)c(C(=O)Nc2cccc3c4c(oc23)CCCC4)c1Cl)S(C)(=O)=O	237 to 238

SMILES	melting point [°C]
CC(C)C(=O)CC(=O)Nc1ccccc1	46.5 to 58.8
COc1ccc(I)c(OCC(O)CNCCc2ccc(OC)c(OC)c2)c1 (stereo unspecified)	83 to 88
C#C[C@]1(C)CCc2c(C)c(OC)c(C)c(C)c2O1	94 to 97
CCCCCc1ccc(NC2=NCCS2)cc1	77 to 78
CC(=O)Nc1cc2c(cc1C#N)CCC2	172
CCOc1cc2ncc(C#N)c(Nc3ccc4c(c3)C(=O)OC4)c2cc1OCC	280 to 284
CCOC(C)Oc1cnc(C(C)C)nc1O (stereo unspecified)	70
COc1ccc(C(=O)NCc2ccc(C)n2CCC#N)cc1OC	175 to 176
CCOC(=O)c1cc(C(=O)NC)nc(C(=O)NC)c1NC	169 to 170
C=CC(=O)OCCCCCCOc1ccc(C(=O)OCCOCC2(c3ccccc3)C=CC=CC2C=Cc2ccc(OCCCCCC)cc2)cc1 (stereo unspecified)	87
CCOC(=O)Cn1c(=O)sc2cc(N)c(Cl)cc21	154 to 160
CCc1ccc([N+](=O)[O-])cc1COC	21.5 to 23.5
COC(=O)C1=C(C)NC(C)=C(C(=O)OCC2CCCO2)C1c1cccc(C#N)c1 (stereo unspecified)	127 to 129
CCCCNC(=O)c1cccc(S(=O)(=O)NC(=O)c2ccc(C(=O)NCC(=O)OC)nc2)c1	198 to 200
[N-]=[N+]=NCC(COC(C(F)(F)F)(C(F)(F)F)C(F)(F)F)(COC(C(F)(F)F)(C(F)(F)F)C(F)(F)F)C(=O)O	97 to 98
CCC(Oc1c(F)ccc(C)c1F)C1=NCCN1 (stereo unspecified)	70.5 to 71
O=C(NC1CCC1)c1cc([N+](=O)[O-])[nH]n1	240
CC(C)(CC(N)=O)c1ccc2c(c1)OCO2	70 to 71.5
NC(=O)N(O)C[C@H]1C[C@@H](c2ccc(C(F)(F)F)cc2)C1	144 to 146
COc1cc(Nc2c(C#N)cnc3cc(-c4ccc(CN5CCOCC5)cc4)c(OC)cc23)c(Cl)cc1Cl	108 to 110
CCOC(CN1CCOCC1)CN1C(=O)c2ccccc2CS1(=O)=O (stereo unspecified)	128 to 129
Cn1c(OC(F)F)n[nH]c1=O	111
C#CCOc1cnc(C2=NC(C)(C(C)C)C(=O)N2)c(C(=O)OC)c1 (stereo unspecified)	83 to 84
Cn1nnnc1SCCl	55 to 57
CC(C)(CNc1ccnc2cc(Cl)ccc12)NCc1cc(C(F)(F)F)cc(C(F)(F)F)c1	140 to 141
CCC(COC)n1nnc2c(Nc3ccc(C(C)=O)cc3Br)nc(C)nc21 (stereo unspecified)	133 to 134

The remaining lines, values ahead:

melting point [°C]	SMILES
45 to 48	CC(=Cc1ccccc1)c1ccc2c(c1)SCC(C)(C)CS2
109 to 110	O=C1CCc2ccccc2CN1CO
282 to 284	CC(=O)Nc1ccc(S(=O)(=O)N2CCN(c3c(F)cc4c(=O)c(C(=O)O)cn(C5CC5)c4c3F)CC2)cc1
222 to 225	COC(=O)c1cc(-c2ccc3occc3c2)n[nH]c1=O
138 to 142	C[C@H](CS)C(=O)N1C(C(=O)O)CCC1c1ccccc1 (stereo partly specified)
126 to 128	COc1ccc(-n2nc(CCC(=O)O)cc2-c2ccc(Cl)cc2)cc1
135 to 137	CCc1c(C(F)(F)F)noc1NS(=O)(=O)c1cccc2ccccc12
297	NS(=O)(=O)c1cccc(-c2noc(-c3cnc4c(C(F)(F)F)cc(-c5ccc(C(F)(F)F)cc5)cn34)n2)c1
189 to 191	O=C(CCCc1ccccc1)N[C@H]1C[C@H](C(=O)O)Nc2cc(Cl)cc(Cl)c21 (relative stereo)
128 to 129	O=C(O)[C@H](Cc1ccc(C(F)(F)F)cc1)[C@@H](O)c1cccc(F)c1 (racemic)
175 to 178	Oc1cccc(-c2noc3ncccc23)c1
138 to 142	CCN(CC)c1nc2cc(-c3ccccc3C#N)ccc2[nH]1
132 to 134	O=C1CCCc2oc(-c3ccccc3)cc21
68 to 71	CCOCCn1cccc1-c1nc(-c2ccc(OC)cc2)c(-c2ccc(OC)cc2)s1
164 to 166	Cc1c(C)c(N2Cc3ccccc3C2)c(C)c2c1OC(C)(C)C2c1ccccc1 (stereo unspecified)
112 to 113	OCc1cc(-c2ccccc2)cs1
136 to 137	COc1ccc2c(-c3ccccc3F)csc2c1Cl
109 to 123	O=C(O)c1ccccc1Oc1ccccc1C1CCCCC1
172 to 174	CN(C)c1ccc(C(=C2SCCCS2)c2ccccc2)cc1
116 to 118	Cn1nnnc1CC(O)(c1ccc(F)cc1)c1ccc(F)cc1
158 to 160	O=c1c(Cl)c(-c2ccncn2)nc2n1CCCN2C[C@@H](O)c1ccccc1
157 to 158	NC(=O)CNC(=O)c1cccc(-c2ccc(F)c3cc(Cc4cccc(C(F)(F)F)c4)sc23)c1
79 to 80	CCN(CC)C(=O)c1c(OC)cccc1-c1ccccc1
97 to 98	O=C(Cn1cc[nH]c(=O)c1=O)OC(c1ccccc1)c1ccccc1
163	Cc1ccn2c(-c3ccnc(-c4ccc(OCCN5CCCC5)cc4)c3)c(-c3cccc(C)n3)nc2c1

melting point [°C]	SMILES
194	COc1ccc(S(=O)(=O)N2C(=O)C(=O)c3cc(Cl)ccc32)c(OC)c1
189 to 190	CCOc1ccc(C(=O)Nc2ccccc2)cc1N
212 to 214	Cc1ccc([C@H]2Sc3cc(C)ccc3NC(=O)[C@H]2O)cc1
190 to 191	CCCc1c(/C=C/c2ccccc2C)nc2ccc(C(=O)O)cn2c1=O
199 to 203	O=C1c2ccccc2O[C@@H](c2ccccc2)[C@@H]1n1ccnc1 (relative stereo)
273 to 276	Oc1nc(-c2cccnc2)sc1-c1ccccc1
144 to 148	COCCc1nc2c(N)nc3cc(OCc4ccccc4)ccc3c2n1CCCCNS(C)(=O)=O
140	O=C(CCl)NCCCn1cc(-c2ccccc2)c2ccccc2c1=O
165 to 167	COc1cc(CC(C#N)=CNc2ccccc2)cc(OC)c1NC(C)=O
188 to 190	Fc1cc(F)c2c(c1)C[C@@H](n1c(CCNCc3ccccc3)c[nH]c1=S)CO2
115 to 119	CC(C)(C)c1cc(C(=S)OCc2ccccc2)cc(C(C)(C)C)c1O
153 to 155	CSc1ccc(C2C(=O)c3ccccc3C2=O)cc1
185 to 189	CC(C)C(=O)N1CC(OCc2ccccc2)C(OCc2ccccc2)C(OCc2ccccc2)C1COCc1ccccc1 (stereo unspecified)
170 to 175	CC(NC(=O)C1C(CO)N(Cc2ccccc2)C(=O)N1Cc1ccccc1)c1ccc2ccccc2c1 (stereo unspecified)
261 to 263	CN(C)c1ccc(Nc2ncc(C(=O)O)c(=O)[nH]2)cc1
152 to 154	COc1ccccc1NC(=O)Nc1nc2nc(NCCCN3CCN(C)CC3)ncc2cc1-c1c(Cl)cccc1Cl
175 to 178	CC(=O)c1cc(N2CCCC2)ccc1NC(=O)c1ccc(OCc2ccccc2)cc1
140 to 143	Cc1ccc(C2CC(C(F)(F)F)=NN2c2ccc(S(N)(=O)=O)cc2)cc1 (stereo unspecified)
204 to 206	CCOC(=O)c1c(-c2ccc(F)cc2)c2ccccc2[nH]c1=O
205 to 206	O=C(c1ccc(F)cc1)c1cccc(C#Cc2cccc(C(=O)c3ccc(F)cc3)c2)c1
202 to 203	O=C1N[C@H](Cc2ccc(C(F)(F)F)cc2)[C@H](c2cccc3ccccc23)O1 (racemic)
133 to 134	COC(=O)c1cn2c(n1)COc1ccccc1-2
226 to 227	O=C(O)c1cc(Br)ccc1NCCC=C1c2ccccc2CCc2ccccc21
117 to 118	COc1cccc(Oc2nccc(-c3c(-c4ccc(F)cc4)ncn3C3CCNCC3)n2)c1
